In patent US20200283384A1, “ANTIBACTERIAL COMPOUNDS AND METHODS OF USE THEREOF” (Wayne State University, priority 2016, published 2020):
In brackets after ≈: the same amount, converted by molar mass. Read-outs that look alike come from different tables or passages of the source.

System: 24 strains of S. aureus (SA1-SA24)
Experiment: Broth micro-dilution MIC against 24 strains of S. aureus
Assay type: cell-based
Conditions: for Effect against the panel of S. aureus strains: 24 strains SA1-SA24, broth micro-dilution; for MIC: Staphylococcus aureus, read-out: Compound MIC
Experimental: Compounds were tested for their anti-bacterial activity against 56 clinical isolates including 24 clinical isolates of methicillin resistant S. aureus (MRSA) and methicillin-susceptible S. aureus (MSSA), 8 strains of Enterococcus, 8 strains of Acinetobacter baumannii, 8 strains of Klebsiella pneumoniae, and 8 strains of Pseudomonas aeruginosa using a standard broth micro-dilution method as recommended by the Clinical and Laboratory Standard Institute (CLSI, M100, s23).
HN18 HN19, and HN34 were tested by a broth micro-dilution method to determine their minimal inhibitory concentration (MIC) against 24 strains of S. aureus (SA1-SA24) (Table 2). […]. Furthermore, the results for HN18 and HN34 were consistent across four repeated experiments. […]

Q: Which “Effect against the panel of S. aureus strains” value does the source give for `Fc1ccc(C(C2=CNC3C=CC=CC23)C2=C3C=CC=CC3NC2)cc1F` (centres unmarked) [HN18, 3-((3,4-difluorophenyl)(2,7a-dihydro-1H-indol-3-yl)methyl)-3a,7a-dihydro-1H-indole] here?
A: The value was “effective”.

Q: What about the MIC (isolate SA1, experiment I) of the same compound?
A: The MIC was 0.5 µg/mL (≈ 1.38 µM).

Q: What about the MIC (isolate SA1, experiment II) of the same compound?
A: The MIC was 1 µg/mL (≈ 2.76 µM).

Q: And the MIC (isolate SA1, experiment III)?
A: The MIC was 1 µg/mL (≈ 2.76 µM).

Q: What about the MIC (isolate SA1, experiment IV) of the same compound?
A: The MIC was 1 µg/mL (≈ 2.76 µM).

Q: What about the MIC (isolate SA2, experiment I) of the same compound?
A: The MIC was 1 µg/mL (≈ 2.76 µM).

Q: And the MIC (isolate SA2, experiment II)?
A: The MIC was 2 µg/mL (≈ 5.52 µM).

Q: What about the MIC (isolate SA2, experiment III) of the same compound?
A: The MIC was 2 µg/mL (≈ 5.52 µM).

Q: What about the MIC (isolate SA2, experiment IV) of the same compound?
A: Its MIC is 2 µg/mL (≈ 5.52 µM).

Q: What about the MIC (isolate SA3, experiment I) of the same compound?
A: The MIC was 1 µg/mL (≈ 2.76 µM).

Q: What about the MIC (isolate SA3, experiment II) of the same compound?
A: Its MIC is 2 µg/mL (≈ 5.52 µM).

Q: And the MIC (isolate SA3, experiment III)?
A: Its MIC is 2 µg/mL (≈ 5.52 µM).

Q: And the MIC (isolate SA3, experiment IV)?
A: The MIC was 2 µg/mL (≈ 5.52 µM).

Q: What about the MIC (isolate SA4, experiment I) of the same compound?
A: Its MIC is 1 µg/mL (≈ 2.76 µM).

Q: What about the MIC (isolate SA4, experiment II) of the same compound?
A: Its MIC is 2 µg/mL (≈ 5.52 µM).

Q: And the MIC (isolate SA4, experiment III)?
A: Its MIC is 1 µg/mL (≈ 2.76 µM).

Q: And the MIC (isolate SA4, experiment IV)?
A: The MIC was 2 µg/mL (≈ 5.52 µM).

Q: What about the MIC (isolate SA5, experiment I) of the same compound?
A: The MIC was 1 µg/mL (≈ 2.76 µM).

Q: And the MIC (isolate SA5, experiment II)?
A: Its MIC is 1 µg/mL (≈ 2.76 µM).

Q: What about the MIC (isolate SA5, experiment III) of the same compound?
A: Its MIC is 1 µg/mL (≈ 2.76 µM).

Q: What about the MIC (isolate SA5, experiment IV) of the same compound?
A: Its MIC is 2 µg/mL (≈ 5.52 µM).

Q: And the MIC (isolate SA6, experiment I)?
A: Its MIC is 1 µg/mL (≈ 2.76 µM).

Q: And the MIC (isolate SA6, experiment II)?
A: The MIC was 2 µg/mL (≈ 5.52 µM).

Q: What about the MIC (isolate SA6, experiment III) of the same compound?
A: The MIC was 2 µg/mL (≈ 5.52 µM).

Q: What about the MIC (isolate SA6, experiment IV) of the same compound?
A: The MIC was 2 µg/mL (≈ 5.52 µM).

Q: And the MIC (isolate SA7, experiment I)?
A: Its MIC is 0.5 µg/mL (≈ 1.38 µM).

Q: What about the MIC (isolate SA7, experiment II) of the same compound?
A: The MIC was 1 µg/mL (≈ 2.76 µM).

Q: And the MIC (isolate SA7, experiment III)?
A: The MIC was 1 µg/mL (≈ 2.76 µM).

Q: And the MIC (isolate SA7, experiment IV)?
A: The MIC was 1 µg/mL (≈ 2.76 µM).

Q: What about the MIC (isolate SA8, experiment I) of the same compound?
A: Its MIC is 1 µg/mL (≈ 2.76 µM).

Q: And the MIC (isolate SA8, experiment II)?
A: The MIC was 2 µg/mL (≈ 5.52 µM).

Q: And the MIC (isolate SA8, experiment III)?
A: The MIC was 2 µg/mL (≈ 5.52 µM).

Q: And the MIC (isolate SA8, experiment IV)?
A: The MIC was 2 µg/mL (≈ 5.52 µM).

Q: What about the MIC (isolate SA9, experiment I) of the same compound?
A: Its MIC is 2 µg/mL (≈ 5.52 µM).

Q: What about the MIC (isolate SA9, experiment II) of the same compound?
A: The MIC was 2 µg/mL (≈ 5.52 µM).

Q: And the MIC (isolate SA10, experiment I)?
A: The MIC was 2 µg/mL (≈ 5.52 µM).

Q: And the MIC (isolate SA10, experiment II)?
A: The MIC was 2 µg/mL (≈ 5.52 µM).

Q: What about the MIC (isolate SA11, experiment I) of the same compound?
A: The MIC was 2 µg/mL (≈ 5.52 µM).

Q: What about the MIC (isolate SA11, experiment II) of the same compound?
A: Its MIC is 2 µg/mL (≈ 5.52 µM).

Q: What about the MIC (isolate SA12, experiment I) of the same compound?
A: The MIC was 2 µg/mL (≈ 5.52 µM).

Q: What about the MIC (isolate SA12, experiment II) of the same compound?
A: Its MIC is 2 µg/mL (≈ 5.52 µM).

Q: What about the MIC (isolate SA13, experiment I) of the same compound?
A: The MIC was 2 µg/mL (≈ 5.52 µM).

Q: And the MIC (isolate SA13, experiment II)?
A: The MIC was 2 µg/mL (≈ 5.52 µM).

Q: And the MIC (isolate SA14, experiment I)?
A: The MIC was 0.5 µg/mL (≈ 1.38 µM).

Q: What about the MIC (isolate SA14, experiment II) of the same compound?
A: Its MIC is 0.5 µg/mL (≈ 1.38 µM).

Q: And the MIC (isolate SA15, experiment I)?
A: Its MIC is 2 µg/mL (≈ 5.52 µM).

Q: What about the MIC (isolate SA15, experiment II) of the same compound?
A: The MIC was 2 µg/mL (≈ 5.52 µM).

Q: And the MIC (isolate SA16, experiment I)?
A: Its MIC is 1 µg/mL (≈ 2.76 µM).

Q: And the MIC (isolate SA16, experiment II)?
A: The MIC was 2 µg/mL (≈ 5.52 µM).

Q: What about the MIC (isolate SA17, experiment I) of the same compound?
A: The MIC was 2 µg/mL (≈ 5.52 µM).

Q: What about the MIC (isolate SA17, experiment II) of the same compound?
A: The MIC was 2 µg/mL (≈ 5.52 µM).

Q: And the MIC (isolate SA18, experiment I)?
A: Its MIC is 2 µg/mL (≈ 5.52 µM).

Q: And the MIC (isolate SA18, experiment II)?
A: Its MIC is 2 µg/mL (≈ 5.52 µM).

Q: What about the MIC (isolate SA19, experiment I) of the same compound?
A: Its MIC is 2 µg/mL (≈ 5.52 µM).

Q: What about the MIC (isolate SA19, experiment II) of the same compound?
A: The MIC was 2 µg/mL (≈ 5.52 µM).

Q: What about the MIC (isolate SA20, experiment I) of the same compound?
A: Its MIC is 2 µg/mL (≈ 5.52 µM).

Q: What about the MIC (isolate SA20, experiment II) of the same compound?
A: Its MIC is 2 µg/mL (≈ 5.52 µM).

Q: What about the MIC (isolate SA21, experiment I) of the same compound?
A: The MIC was 2 µg/mL (≈ 5.52 µM).

Q: And the MIC (isolate SA21, experiment II)?
A: Its MIC is 2 µg/mL (≈ 5.52 µM).

Q: What about the MIC (isolate SA22, experiment I) of the same compound?
A: The MIC was 2 µg/mL (≈ 5.52 µM).

Q: And the MIC (isolate SA22, experiment II)?
A: The MIC was 2 µg/mL (≈ 5.52 µM).

Q: What about the MIC (isolate SA23, experiment I) of the same compound?
A: Its MIC is 2 µg/mL (≈ 5.52 µM).

Q: And the MIC (isolate SA23, experiment II)?
A: The MIC was 2 µg/mL (≈ 5.52 µM).

Q: What about the MIC (isolate SA24, experiment I) of the same compound?
A: The MIC was 2 µg/mL (≈ 5.52 µM).

Q: And the MIC (isolate SA24, experiment II)?
A: The MIC was 2 µg/mL (≈ 5.52 µM).

Q: What does the source list for `Cc1[nH]c2ccccc2c1C(c1ccc(F)c(F)c1)c1c(C)[nH]c2ccccc12` [HN34]?
A: Effect against the panel of S. aureus strains: effective; MIC (isolate SA1, experiment I): 1 µg/mL (≈ 2.59 µM); MIC (isolate SA1, experiment II): 2 µg/mL (≈ 5.18 µM); MIC (isolate SA1, experiment III): 1 µg/mL (≈ 2.59 µM); MIC (isolate SA1, experiment IV): 1 µg/mL (≈ 2.59 µM); MIC (isolate SA2, experiment I): 2 µg/mL (≈ 5.18 µM); MIC (isolate SA2, experiment II): 2 µg/mL (≈ 5.18 µM); MIC (isolate SA2, experiment III): 1 µg/mL (≈ 2.59 µM); MIC (isolate SA2, experiment IV): 1 µg/mL (≈ 2.59 µM); MIC (isolate SA3, experiment I): 2 µg/mL (≈ 5.18 µM); MIC (isolate SA3, experiment II): 2 µg/mL (≈ 5.18 µM); MIC (isolate SA3, experiment III): 2 µg/mL (≈ 5.18 µM); MIC (isolate SA3, experiment IV): 2 µg/mL (≈ 5.18 µM); MIC (isolate SA4, experiment I): 2 µg/mL (≈ 5.18 µM); MIC (isolate SA4, experiment II): 2 µg/mL (≈ 5.18 µM); MIC (isolate SA4, experiment III): 2 µg/mL (≈ 5.18 µM); MIC (isolate SA5, experiment I): 1 µg/mL (≈ 2.59 µM); MIC (isolate SA5, experiment II): 2 µg/mL (≈ 5.18 µM); MIC (isolate SA5, experiment III): 1 µg/mL (≈ 2.59 µM); MIC (isolate SA5, experiment IV): 2 µg/mL (≈ 5.18 µM); MIC (isolate SA6, experiment I): 1 µg/mL (≈ 2.59 µM); MIC (isolate SA6, experiment II): 1 µg/mL (≈ 2.59 µM); MIC (isolate SA6, experiment III): 1 µg/mL (≈ 2.59 µM); MIC (isolate SA6, experiment IV): 1 µg/mL (≈ 2.59 µM); MIC (isolate SA7, experiment I): 1 µg/mL (≈ 2.59 µM); MIC (isolate SA7, experiment II): 1 µg/mL (≈ 2.59 µM); MIC (isolate SA7, experiment III): 1 µg/mL (≈ 2.59 µM); MIC (isolate SA7, experiment IV): 1 µg/mL (≈ 2.59 µM); MIC (isolate SA8, experiment I): 2 µg/mL (≈ 5.18 µM); MIC (isolate SA8, experiment II): 2 µg/mL (≈ 5.18 µM); MIC (isolate SA8, experiment III): 2 µg/mL (≈ 5.18 µM); MIC (isolate SA8, experiment IV): 2 µg/mL (≈ 5.18 µM); MIC (isolate SA9, experiment I): 0.5 µg/mL (≈ 1.29 µM); MIC (isolate SA10, experiment I): 1 µg/mL (≈ 2.59 µM); MIC (isolate SA11, experiment I): 1 µg/mL (≈ 2.59 µM); MIC (isolate SA12, experiment I): 1 µg/mL (≈ 2.59 µM); MIC (isolate SA13, experiment I): 1 µg/mL (≈ 2.59 µM); MIC (isolate SA14, experiment I): 0.25 µg/mL (≈ 0.647 µM); MIC (isolate SA15, experiment I): 1 µg/mL (≈ 2.59 µM); MIC (isolate SA16, experiment I): 1 µg/mL (≈ 2.59 µM); MIC (isolate SA17, experiment I): 1 µg/mL (≈ 2.59 µM); MIC (isolate SA18, experiment I): 1 µg/mL (≈ 2.59 µM); MIC (isolate SA19, experiment I): 1 µg/mL (≈ 2.59 µM); MIC (isolate SA20, experiment I): 2 µg/mL (≈ 5.18 µM); MIC (isolate SA21, experiment I): 1 µg/mL (≈ 2.59 µM); MIC (isolate SA22, experiment I): 1 µg/mL (≈ 2.59 µM); MIC (isolate SA23, experiment I): 1 µg/mL (≈ 2.59 µM); MIC (isolate SA24, experiment I): 1 µg/mL (≈ 2.59 µM)
